Experimental findings from patent US7091202B2, “4-arylspirocycloalkyl-2-aminopyrimidine carboxamide KCNQ potassium channel modulators” (Bristol-Myers Squibb Company, priority 2004, dated 2006) are described below.

SMILES strings stand for the structures. pEC50: −log10 of the molar value.

As usually defined, the pEC50 is −log10 of the EC50, conventionally taken in molar units. Read a low pEC50 as a large EC50.

T1 sequence (O43526 whole entry): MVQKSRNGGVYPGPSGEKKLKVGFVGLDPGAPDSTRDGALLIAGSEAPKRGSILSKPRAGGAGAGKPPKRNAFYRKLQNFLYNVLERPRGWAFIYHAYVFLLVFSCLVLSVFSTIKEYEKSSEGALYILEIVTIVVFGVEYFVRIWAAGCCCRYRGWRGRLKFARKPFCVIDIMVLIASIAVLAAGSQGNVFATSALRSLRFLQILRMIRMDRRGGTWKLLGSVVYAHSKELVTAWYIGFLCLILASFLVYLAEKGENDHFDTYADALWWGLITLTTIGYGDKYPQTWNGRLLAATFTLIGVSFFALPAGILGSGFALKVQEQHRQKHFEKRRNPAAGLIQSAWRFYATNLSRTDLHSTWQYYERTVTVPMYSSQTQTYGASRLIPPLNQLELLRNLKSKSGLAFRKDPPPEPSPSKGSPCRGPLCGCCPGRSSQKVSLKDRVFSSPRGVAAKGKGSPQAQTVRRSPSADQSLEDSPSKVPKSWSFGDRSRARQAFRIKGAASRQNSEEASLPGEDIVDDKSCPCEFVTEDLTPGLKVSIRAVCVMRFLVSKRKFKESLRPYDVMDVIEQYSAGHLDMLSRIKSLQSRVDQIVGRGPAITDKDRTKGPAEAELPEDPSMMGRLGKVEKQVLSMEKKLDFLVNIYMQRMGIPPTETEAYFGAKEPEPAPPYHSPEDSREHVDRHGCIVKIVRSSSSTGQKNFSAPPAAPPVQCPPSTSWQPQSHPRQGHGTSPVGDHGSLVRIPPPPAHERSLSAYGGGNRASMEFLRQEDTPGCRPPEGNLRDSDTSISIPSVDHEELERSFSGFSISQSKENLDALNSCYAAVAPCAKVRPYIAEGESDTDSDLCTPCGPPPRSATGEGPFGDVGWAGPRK
T1 sequence (O43525 whole entry): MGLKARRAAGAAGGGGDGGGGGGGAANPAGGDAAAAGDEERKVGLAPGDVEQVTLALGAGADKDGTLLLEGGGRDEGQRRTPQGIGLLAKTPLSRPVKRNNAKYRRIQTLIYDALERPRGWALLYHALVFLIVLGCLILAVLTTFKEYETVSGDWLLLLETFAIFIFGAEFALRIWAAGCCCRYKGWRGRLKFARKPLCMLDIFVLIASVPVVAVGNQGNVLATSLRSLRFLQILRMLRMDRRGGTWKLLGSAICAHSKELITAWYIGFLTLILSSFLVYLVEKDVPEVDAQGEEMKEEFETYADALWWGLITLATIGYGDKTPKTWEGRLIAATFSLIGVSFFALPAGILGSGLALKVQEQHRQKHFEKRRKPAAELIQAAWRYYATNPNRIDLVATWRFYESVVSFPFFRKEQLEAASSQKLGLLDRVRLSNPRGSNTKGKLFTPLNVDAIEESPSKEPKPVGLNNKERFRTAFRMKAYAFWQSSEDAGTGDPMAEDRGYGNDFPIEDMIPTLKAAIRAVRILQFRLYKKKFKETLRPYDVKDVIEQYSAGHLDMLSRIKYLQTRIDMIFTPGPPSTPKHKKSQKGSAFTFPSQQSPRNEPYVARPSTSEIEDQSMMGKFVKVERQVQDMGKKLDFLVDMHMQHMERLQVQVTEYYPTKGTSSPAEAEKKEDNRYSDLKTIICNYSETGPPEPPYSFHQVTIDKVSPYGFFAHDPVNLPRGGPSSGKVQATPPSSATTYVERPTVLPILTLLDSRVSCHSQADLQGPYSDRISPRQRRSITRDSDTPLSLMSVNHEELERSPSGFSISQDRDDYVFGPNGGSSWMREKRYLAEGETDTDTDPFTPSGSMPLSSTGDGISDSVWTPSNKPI

The first assay concerns the target T1, hQ23 (HEK-293 cell line stably transfected with one of the members of the KCNQ family) (Homo sapiens, UniProt O43525+O43526).
T1 construct: expressed in transfected cells; host or cells: HEK-293, stably transfected
As to the kind of experiment: Thallium flux assay for KCNQ channel blockers (FLIPR, BTC dye). Format: cell-based. The conditions noted are these: Table 3; thallium flux, HEK-293. The essentials:
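FLIPR thallium flux readout (BTC dye, 2 μM AM ester) in stably transfected KCNQ HEK-293 cells, chloride-free HEPES buffer pH 7.3, Tl2SO4 stimulus. IC50s were fitted with a single-site logistic equation across 10 points at 1:3 dilutions, defined as 50% of positive-control block; minimal active concentration meant signal ≥4 SD over DMSO controls.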
Compound `CCN(CC)C(=O)c1cnc(NCCN(C)C)nc1C1(c2ccc(Cl)cc2)CCC1` [Example 53, 5-pyrimidinecarboxamide, 4-[1-(4-chlorophenyl)cyclobutyl]-2-[[2-(dimethylamino)ethyl]amino]-N,N-diethyl-] showed a pEC50 of 6.25.

Still in this assay, the particulars now being: hQ23 cells, thallium flux.
As for `CC1CCCN(c2ncc(C(=O)NCc3ccc(Cl)c(Cl)c3)c(C3(c4ccc(Cl)cc4)CCCC3)n2)C1` (stereo not drawn) [Example 174, 5-pyrimidinecarboxamide, 4-[1-(4-chlorophenyl)cyclopentyl]-N-[(3,4-dichlorophenyl)methyl]-2-(3-methyl-1-piperidinyl)-], the pEC50 is 8.00. The same measure, in the same setting: in the case of `CC1CCCN(c2ncc(C(=O)N(C)Cc3ccccc3)c(C3(c4ccc(F)cc4)CCCC3)n2)C1` (stereo not drawn) [Example 205, 5-pyrimidinecarboxamide, 4-[1-(4-fluorophenyl)cyclopentyl]-N-methyl-2-(3-methyl-1-piperidinyl)-N-(phenylmethyl)-] it was 6.94; in that of `CCC(C)Nc1ncc(C(=O)NCc2ccc3c(c2)OCO3)c(C2(c3ccc(Cl)cc3)CCCC2)n1` (stereo not drawn) [Example 155, 5-pyrimidinecarboxamide, N-(1,3-benzodioxol-5-ylmethyl)-4-[1-(4-chlorophenyl)cyclopentyl]-2-[(1-methylpropyl)amino]-], 6.47; in that of `CN(Cc1ccccc1)C(=O)c1cnc(NC2CCCC2)nc1C1(c2ccccc2)CCCC1` [Example 71, 5-pyrimidinecarboxamide, 2-(cyclopentylamino)-N-methyl-4-(1-phenylcyclopentyl)-N-(phenylmethyl)-], 6.14. The same measure, in the same setting: to `CC1CCC(Nc2ncc(C(=O)NCc3ccc(Cl)cc3Cl)c(C3(c4ccc(Cl)cc4)CCCC3)n2)CC1` (stereo not drawn) [Example 177, 5-pyrimidinecarboxamide, 4-[1-(4-chlorophenyl)cyclopentyl]-N-[(2,4-dichlorophenyl)methyl]-2-[(4-methylcyclohexyl)amino]-] belongs 7.26; to `CN(Cc1ccccc1)C(=O)c1cnc(NC2CCCC2)nc1C1(c2ccc(Cl)cc2)CCCC1` [Example 141, 5-pyrimidinecarboxamide, 4-[1-(4-chlorophenyl)cyclopentyl]-2-(cyclopentylamino)-N-methyl-N-(phenylmethyl)-], 6.74; to `CC1CCCN(c2ncc(C(=O)NCc3ccc(Cl)cc3Cl)c(C3(c4ccccc4)CCCC3)n2)C1` (stereo not drawn) [Example 112, 5-pyrimidinecarboxamide, N-[(2,4-dichlorophenyl)methyl]-2-(3-methyl-1-piperidinyl)-4-(1-phenylcyclopentyl)-], 7.19. On to `CC1CCN(c2ncc(C(=O)NCc3ccc(Cl)c(Cl)c3)c(C3(c4ccc(Cl)cc4)CCCC3)n2)CC1` [Example 175, 5-pyrimidinecarboxamide, 4-[1-(4-chlorophenyl)cyclopentyl]-N-[(3,4-dichlorophenyl)methyl]-2-(4-methyl-1-piperidinyl)-], for which the pEC50 is 8.00. Same read-out and setting: in the case of `CC1CCC(Nc2ncc(C(=O)NCc3cccc4ccccc34)c(C3(c4ccccc4)CCCC3)n2)CC1` (stereo not drawn) [Example 102, 5-pyrimidinecarboxamide, 2-[(4-methylcyclohexyl)amino]-N-(1-naphthalenylmethyl)-4-(1-phenylcyclopentyl)-] it was 6.71; in that of `CC1CCN(c2ncc(C(=O)N3CCc4ccccc4C3)c(C3(c4ccccc4)CCCC3)n2)CC1` [Example 74, isoquinoline, 1,2,3,4-tetrahydro-2-[[2-(4-methyl-1-piperidinyl)-4-(1-phenylcyclopentyl)-5-pyrimidinyl]carbonyl]-], 6.72.

Still in this assay, the particulars now being: hQ23 cells, thallium flux assay.
`CC1CCC(Nc2ncc(C(=O)NC(C)c3cccc4ccccc34)c(C3(c4ccc(F)cc4)CCCC3)n2)CC1` (stereo not drawn) [Example 241, 5-pyrimidinecarboxamide, 4-[1-(4-fluorophenyl)cyclopentyl]-2-[(4-methylcyclohexyl)amino]-N-[1-(1-naphthalenyl)ethyl]-] had a pEC50 of 8.00.
